Test results as given in patent US20110112155A1, “METHODS FOR TREATING CANCER IN PATIENTS HAVING BREAST CANCER RESISTANCE PROTEIN OVEREXPRESSION” (Bristol-Myers Squibb Company, priority 2008, published 2011).
Like-named read-outs stand apart in the source and are kept apart here.

Columns and labels:
[1] = test system: BCRP overexpressing HEK293/BCRP cell line; assay: Cell growth assay in BCRP overexpressing HEK293 cells; format: cell-based
Method: (§1) Cancer cell lines overexpressing TUBB3 were evaluated in vivo in mice for sensitivity to ixabepilone, docetaxel and vinorelbine. These include DU4475 and PAT21 breast, as well as H1155 and LX-1 lung cancer lines. BCRP overexpressing HEK-293 cell line was studied in vitro for sensitivity to ixabepilone, paclitaxel and mitoxantrone.
(§2) Compounds and reagents. Ixabepilone, docetaxel and mitoxantrone were solubilized in 100% DMSO at 10 mg/ml for in vitro studies.
(§3) Cell culture: HEK and HEK/BCRP cells were maintained in RPMI-1640 (Gibco) supplemented with 10% heat-inactivated fetal bovine serum and 25 mM HEPES at 37° C./5% CO2.
(§4) Cell growth assays. Cell growth assays were conducted in 6-well culture plates. Cells were plated at a density of 4×10^4 cells/well overnight. Compounds were then added (total DMSO content not exceeding 0.1%). Cell growth was determined by the direct counting of cell number, following trypsinization, using a Coulter Channelyzer.

[2] = test system: BCRP; assay: as above; format: cell-based; conditions: human, HEK293 cells overexpressing BCRP (HEK293/BCRP); HEK293/BCRP cells, cell growth by cell counting
Method: as §1, §2, §3, §4

[3] = test system: paclitaxel-sensitive (A2780, HCT116, LS174T) and paclitaxel-resistant (HCT116/VM46, Pat-7, A2780Tax, Pat-21) human tumor models; assay: Preclinical pharmacology studies of antitumor activity in human tumor models; format: in vivo
[4] = test system: LX-1 lung tumor xenograft overexpressing TUBB3; assay: In vivo efficacy in TUBB3 overexpressing LX-1 lung tumor xenograft; set-up: species or system human; conditions: LX-1 xenograft in nude mice, at maximum tolerated dose; activity = LCK>=1
Method: as §1
(§5) In vivo efficacy of ixabepilone was evaluated in TUBB3 overexpressing human breast (DU4475 and PAT21) and lung (H1155 and LX-1) tumor xenograft models • Tumor response was determined by measurement of tumors by caliper twice a week • Tumor weights were estimated using the formula
(§6) Tumor weight=(length×width2)/2 • Tumor response endpoint was expressed in terms of log cell kill (LCK) expressed as
(§7) LCK=(T−C)÷(3.32×TVDT) • T−C, the difference in the time (days) required for the treated tumors (T) to reach a predetermined target size compared with those of the control group (C)
(§8) Tumor volume doubling time=TVDT: Median time (days) for control tumors to reach target size−Median time (days) for control tumors to reach half the target size • Activity was defined as achievement of LCK≧1 • MTD—the dose level immediately above which excessive toxicity (i.e., more then one death) occurred • Statistical evaluations were performed using Gehan's generalized Wilcoxon test

[5] = test system: Pat-21 breast tumor xenograft overexpressing TUBB3; assay: In vivo efficacy in TUBB3 overexpressing PAT21 breast tumor xenograft; set-up: species or system human; conditions: Pat-21 xenograft in nude mice, at maximum tolerated dose; activity = LCK>=1
Method: as §1, §5, §6, §7, §8

[6] = test system: DU4475 breast tumor xenograft overexpressing TUBB3; assay: In vivo efficacy in TUBB3 overexpressing DU4475 breast tumor xenograft; set-up: species or system human; conditions: DU4475 xenograft in nude mice, at maximum tolerated dose; activity = LCK>=1
Method: as §1, §5, §6, §7, §8

[7] = test system: H1155 lung tumor xenograft overexpressing TUBB3; assay: In vivo efficacy in TUBB3 overexpressing H1155 lung tumor xenograft; set-up: species or system human; conditions: H1155 xenograft in nude mice, at maximum tolerated dose; activity = LCK>=1
Method: as §1, §5, §6, §7, §8

[8] = test system: human lung carcinoma cell line, H441; assay: BCRP-overexpression dependent resistance in H441 cells; format: cell-based; conditions: FIG. 8
[9] = test system: 4 xenografts overexpressing TUBB3 (DU4475, PAT21, H1155, LX-1); assay: In vivo efficacy across the 4 human tumor xenografts overexpressing TUBB3; conditions: range across 4 TUBB3 overexpressing xenografts in nude mice, at MTD
Method: as §1, §5, §6, §7, §8

[10] = test system: BCRP overexpressing cells; assay: Detection of BCRP overexpressing cells by Hoescht 33342 dye and flow cytometry; format: cell-based; conditions: flow cytometry, FIG. 7
Source text: Determination of BCRP Expression by Flow Cytometry.
Cells were acquired using CellQuest Pro on a FACSCalibur (BD) and analyzed using FlowJo software.

[11] = HEK293/BCRP in comparison with the vector-transfected control line

| SMILES | resistance factor [1, 11] | IC50 [2] | Antitumor Efficacy (LCK) [4] | Antitumor Efficacy (LCK) [5] | Antitumor Efficacy (LCK) [6] | Antitumor Efficacy (LCK) [7] | antitumor efficacy, range over the 4 xenografts [9] | other results |
| --- | --- | --- | --- | --- | --- | --- | --- | --- |
| CC(=O)O[C@H]1C(=O)[C@@]2(C)[C@H]([C@H](OC(=O)c3ccccc3)[C@]3(O)C[C@H](OC(=O)[C@H](O)[C@@H](NC(=O)c4ccccc4)c4ccccc4)C(C)=C1C3(C)C)[C@]1(OC(C)=O)CO[C@@H]1C[C@@H]2O [paclitaxel] | 9.8 fold | 8.7 nM |  |  |  |  |  |  |
| O=C1c2c(O)ccc(O)c2C(=O)c2c(NCCNCCO)ccc(NCCNCCO)c21 [mitoxantrone] | 4.1 fold | 26.4 nM |  |  |  |  |  |  |
| C/C(=C\c1csc(C)n1)[C@@H]1C[C@@H]2O[C@]2(C)CCC[C@H](C)[C@H](O)[C@@H](C)C(=O)C(C)(C)[C@@H](O)CC(=O)N1 [Ixabepilone, (1S,3S,7S,10R,11S,12S,16R)-7,11-dihydroxy-8,8,10,12,16-pentamethyl-3-[(1E)-1-methyl-2-(2-methyl-4-thiazolyl)ethenyl]-17-oxa-4-azabicyclo[14.1.0]heptadecane-5,9-dione] |  | 4.1 nM | 2.6 LCK | 1.6 LCK | 2.6 LCK | 4.2 LCK |  | oral efficacy ([3]; oral administration, comparable to parenteral administration): orally efficacious; antitumor activity ([3]; paclitaxel-sensitive and paclitaxel-resistant human colon, ovarian and breast tumor models): very impressive and broad spectrum of antitumor activity; resistance factor [1]: 1.9 fold; ability to overcome BCRP-overexpression dependent resistance to taxanes [8]: increased ability |
| CCC1=C[C@@H]2CN(C1)Cc1c([nH]c3ccccc13)[C@@](C(=O)OC)(c1cc3c(cc1OC)N(C)[C@H]1[C@@](O)(C(=O)OC)[C@H](OC(C)=O)[C@]4(CC)C=CCN5CC[C@]31[C@@H]54)C2 [Vinorelbine, vinorelbine] |  |  | 0.1 LCK | 0.3 LCK | 0.2 LCK | 0.1 LCK | 0.1-0.3 LCK |  |
| CC(=O)O[C@@]12CO[C@@H]1C[C@H](O)[C@@]1(C)C(=O)[C@H](O)C3=C(C)[C@@H](OC(=O)[C@H](O)[C@@H](NC(=O)OC(C)(C)C)c4ccccc4)C[C@@](O)([C@@H](OC(=O)c4ccccc4)[C@H]21)C3(C)C [Docetaxel, docetaxel] |  |  | 0.5 LCK | 0.3 LCK | 0.9 LCK | 0.2 LCK | 0.2-0.9 LCK |  |
| COc1ccc2c3c([nH]c2c1)[C@H](C=C(C)C)N1C(=O)[C@@H]2CCCN2C(=O)[C@@H]1C3 [fumitremorgin C] |  |  |  |  |  |  |  | effect on BCRP overexpressing cells detected with Hoescht 33342 dye [10]: abolition of BCRP overexpressing cells; reversal of BCRP-mediated resistance to paclitaxel and mitoxantrone ([1]; HEK293/BCRP cells): reversed |
